Laboratory results: US20090264492A1, “PHARMACEUTICAL COMPOSITION FOR THE TREATMENT OF A FUNGAL SKIN DISORDER AND A METHOD FOR THE PREPARATION THEREOF” (Stichting Voor de Technische Wetenschappen, priority 2006, published 2009)

Assays:
T. rubrum = test: PDT of T. rubrum on human stratum corneum (ex-vivo model), fungicidal effect; assay type: cell-based, Trichophyton rubrum; details: for relative frequency of the fungicidal effect: read day 8; for MIC (Minimum Inhibitory Concentration): 2 h incubation in water, 1 h 30 mW/cm^2 red light
Description: A polycarbonate membrane filter, 25 mm in diameter and a pore size of 2 μm (Whatman, Breda, The Netherlands) was placed in the central part of a 3 cm culture dish (Greiner, Alphen aan den Rijn, The Netherlands) filled with 5 ml of Malt Extract Agar (MEA). A circular piece of human stratum corneum (SC) with a diameter of 1 cm was subsequently placed on the membrane filter and both were gently brushed with a paintbrush dipped in 70% ethanol. A microconidia suspension isolated from Trichphyton rubrum (CBS nr. 304.60 obtained from Centraal Bureau voor Schimmelcultures, Utrecht, The Netherlands, and prepared as described by Smijs G. M. T. et al (2004) in “Photodynamic treatment of the dermatophyte Trichophyton Rubrum and its microconidia with porphyrin sensitizers. PhotoChemistry and PhotoBiology, 80, 197 - 202”) was diluted to 1000 CFU/ml and 15 μl was inoculated on the circular sheet of human SC. The dish was placed in an incubator at 28° C. and at 17 hours after spore inoculation photodynamic treatment (PDT) was applied.
At 17 hours after spore inoculation, the membrane filter with SC containing spore inoculates was transported from the MEA dish to a 3 cm culture dish filled with 1035 μl incubation medium. The incubation medium contained 1 ml of distilled water with an adjusted pH (3.5, 4.5, 5.2, or 7.4) and 35 μl of a Sylsens B stock solution (Buchem, Apeldoorn, the Nederland) . To optimize the contact of the inoculates with the incubation medium, the membrane filter with the SC was turned upside down during the incubation period of 2 hours. The incubation was performed under continuous shaking conditions. Shortly before the illumination period the membrane filter containing the SC was turned back (surface SC now faces the lamp). In all cases, the illumination time was 1 hour using a red light irradiance of 30 mW/cm^2. This corresponds to a light dose of 108 J/cm^2. After the illumination the membrane filter with the SC were transported to a fresh MEA dish, placed in a 28° C. incubator and fungal growth was followed for several weeks. Dark controls were included, i.e. the same procedure was carried out except that the inoculated microconidia on human skin were treated with solvent and/or photosensitizer in the dark. In the light controls, the microconidia were treated with solvent (only) in the presence of light. The efficacy of the treatment was expressed as a relative frequency of complete inactivation (killing) of fungal growth detected at day 8 after spore inoculation. This was assessed microscopically with the use of a Zeiss Axiovert 25 (Germany). […] The treatment effect was followed for a period of several months. Every experiment contained 4 to 6 duplicates of all conditions and the experiments were repeated 3 times at least.
PDT of T. rubrum 17 hours after spore inoculation using the ex-vivo model, different concentrations of Sylsens B and a different pH (water medium). The numbers indicate the relative frequency of the fungicidal effect^1. Numbers between brackets give the number of tests performed.
The experiment with Sylsens B was repeated more extensively, for a longer period of time and with more samples. More specifically, the photodynamic efficacy of Sylsens B towards T. rubrum was tested at 17 (FIG. 2a), 48 (FIG. 2b) and 72 hours (FIG. 2c) after spore inoculation on human SC, at the following incubation pH values: Filled diamonds: pH 3.5, filled squares: pH 5.2 and filled triangles: pH 7.4.

[1] = system: the fungus cultivated in suspension; test: binding of Sylsens B to the fungus cultivated in suspension / photodynamic effect with competing cations; assay type: cell-based, T. rubrum; details: in the presence of 5 mM CaCl2 at pH 5.2
Description: In the above experiments, deuteroporphyrin monomethylether (DP mme), an anionic porphyrin, was used as a control. […] The effect of calcium-ions was investigated by determining the photodynamic effect in the presence of 5 mM CaCl2 at pH 5.2. […] So, PDT may even be used to inactivate (kill) the growing fungus if measures are taken to prevent naturally present calcium from interfering with the treatment, in particular by using a chelating compound such as EDTA.

[2] = production of 1O2 over the pH range; assay type: physicochemical; details: over the pH range used

C[n+]1ccc(-c2c3nc(c(-c4cc[n+](C)cc4)c4ccc([nH]4)c(-c4cc[n+](C)cc4)c4nc(c(-c5ccccc5)c5ccc2[nH]5)C=C4)C=C3)cc1.[Cl-].[Cl-].[Cl-] [Sylsens B, 5,10,15-tris(4-methylpyridinium)-20-phenyl-[21H,23H]-porphine trichloride]
relative frequency of the fungicidal effect (T. rubrum; 0.5 μM, pH 3.5, illuminated, PDT 17 h after spore inoculation): 0 (6) | relative frequency of the fungicidal effect (T. rubrum; 0.5 μM, pH 5.2, illuminated, PDT 17 h after spore inoculation): 0 (3) | relative frequency of the fungicidal effect (T. rubrum; 0.5 μM, pH 7.4, illuminated, PDT 17 h after spore inoculation): 0 (6) | relative frequency of the fungicidal effect (T. rubrum; 1 μM, pH 3.5, dark control, 17 h after spore inoculation): 0 (2) | relative frequency of the fungicidal effect (T. rubrum; 1 μM, pH 3.5, illuminated, 17 h after spore inoculation): 0 (6) | relative frequency of the fungicidal effect (T. rubrum; 1 μM, pH 5.2, dark control, 17 h after spore inoculation): 0 (2) | relative frequency of the fungicidal effect (T. rubrum; 1 μM, pH 5.2, illuminated, 17 h after spore inoculation): 0 (3) | relative frequency of the fungicidal effect (T. rubrum; 1 μM, pH 7.4, dark control, 17 h after spore inoculation): 0 (2) | relative frequency of the fungicidal effect (T. rubrum; 1 μM, pH 7.4, illuminated, 17 h after spore inoculation): 0 (6) | relative frequency of the fungicidal effect (T. rubrum; 5 μM, pH 3.5, dark control, 17 h after spore inoculation): 0 (2) | relative frequency of the fungicidal effect (T. rubrum; 5 μM, pH 3.5, illuminated, 17 h after spore inoculation): 0.2 (10) | relative frequency of the fungicidal effect (T. rubrum; 5 μM, pH 5.2, dark control, 17 h after spore inoculation): 0 (4) | relative frequency of the fungicidal effect (T. rubrum; 5 μM, pH 5.2, illuminated, 17 h after spore inoculation): 0.43 (7) | relative frequency of the fungicidal effect (T. rubrum; 5 μM, pH 7.4, dark control, 17 h after spore inoculation): 0 (6) | relative frequency of the fungicidal effect (T. rubrum; 5 μM, pH 7.4, illuminated, 17 h after spore inoculation): 0.4 (12) | relative frequency of the fungicidal effect (T. rubrum; 6 μM, pH 3.5, illuminated, 17 h after spore inoculation): 0.5 (2) | relative frequency of the fungicidal effect (T. rubrum; 6 μM, pH 5.2, illuminated, 17 h after spore inoculation): 1 (4) | relative frequency of the fungicidal effect (T. rubrum; 6 μM, pH 7.4, dark control, 17 h after spore inoculation): 0 (6) | relative frequency of the fungicidal effect (T. rubrum; 6 μM, pH 7.4, illuminated, 17 h after spore inoculation): 0.2 (12) | relative frequency of the fungicidal effect (T. rubrum; 7 μM, pH 5.2, illuminated, 17 h after spore inoculation): 1 (4) | relative frequency of the fungicidal effect (T. rubrum; 8 μM, pH 3.5, illuminated, 17 h after spore inoculation): 0.75 (4) | relative frequency of the fungicidal effect (T. rubrum; 8 μM, pH 5.2, illuminated, 17 h after spore inoculation): 1 (4) | relative frequency of the fungicidal effect (T. rubrum; 8 μM, pH 7.4, dark control, 17 h after spore inoculation): 0 (6) | relative frequency of the fungicidal effect (T. rubrum; 8 μM, pH 7.4, illuminated, 17 h after spore inoculation): 0.6 (12) | relative frequency of the fungicidal effect (T. rubrum; 9 μM, pH 5.2, illuminated, 17 h after spore inoculation): 1 (4) | relative frequency of the fungicidal effect (T. rubrum; 10 μM, pH 3.5, dark control, 17 h after spore inoculation): 0 (2) | relative frequency of the fungicidal effect (T. rubrum; 10 μM, pH 3.5, illuminated, 17 h after spore inoculation): 0.8 (10) | relative frequency of the fungicidal effect (T. rubrum; 10 μM, pH 5.2, dark control, 17 h after spore inoculation): 0 (4) | relative frequency of the fungicidal effect (T. rubrum; 10 μM, pH 5.2, illuminated, 17 h after spore inoculation): 1 (9) | relative frequency of the fungicidal effect (T. rubrum; 10 μM, pH 7.4, dark control, 17 h after spore inoculation): 0 (6) | relative frequency of the fungicidal effect (T. rubrum; 10 μM, pH 7.4, illuminated, 17 h after spore inoculation): 0.6 (12) | relative frequency of the fungicidal effect (T. rubrum; 15 μM, pH 3.5, illuminated, 17 h after spore inoculation): 1 (4) | relative frequency of the fungicidal effect (T. rubrum; 15 μM, pH 5.2, illuminated, 17 h after spore inoculation): 1 (4) | relative frequency of the fungicidal effect (T. rubrum; 15 μM, pH 7.4, dark control, 17 h after spore inoculation): 0.5 (6) | relative frequency of the fungicidal effect (T. rubrum; 15 μM, pH 7.4, illuminated, 17 h after spore inoculation): 0.7 (12) | relative frequency of the fungicidal effect (T. rubrum; 20 μM, pH 3.5, dark control, 17 h after spore inoculation): 0 (2) | relative frequency of the fungicidal effect (T. rubrum; 20 μM, pH 3.5, illuminated, 17 h after spore inoculation): 1 (4) | relative frequency of the fungicidal effect (T. rubrum; 20 μM, pH 5.2, dark control, 17 h after spore inoculation): 0 (2) | relative frequency of the fungicidal effect (T. rubrum; 20 μM, pH 7.4, dark control, 17 h after spore inoculation): 0.3 (6) | relative frequency of the fungicidal effect (T. rubrum; 20 μM, pH 7.4, illuminated, 17 h after spore inoculation): 0.6 (12) | relative frequency of the fungicidal effect (T. rubrum; 30 μM, pH 3.5, dark control, 17 h after spore inoculation): 0.5 (2) | relative frequency of the fungicidal effect (T. rubrum; 30 μM, pH 3.5, illuminated, 17 h after spore inoculation): 1 (4) | relative frequency of the fungicidal effect (T. rubrum; 30 μM, pH 5.2, dark control, 17 h after spore inoculation): 1 (2) | relative frequency of the fungicidal effect (T. rubrum; 30 μM, pH 5.2, illuminated, 17 h after spore inoculation): 1 (5) | relative frequency of the fungicidal effect (T. rubrum; 30 μM, pH 7.4, dark control, 17 h after spore inoculation): 0.3 (6) | relative frequency of the fungicidal effect (T. rubrum; 30 μM, pH 7.4, illuminated, 17 h after spore inoculation): 0.6 (12) | relative frequency of the fungicidal effect (T. rubrum; 40 μM, pH 3.5, illuminated, 17 h after spore inoculation): 1 (4) | relative frequency of the fungicidal effect (T. rubrum; 40 μM, pH 7.4, dark control, 17 h after spore inoculation): 0 (6) | relative frequency of the fungicidal effect (T. rubrum; 40 μM, pH 7.4, illuminated, 17 h after spore inoculation): 1 (12) | relative frequency of the fungicidal effect (T. rubrum; 50 μM, pH 3.5, dark control, 17 h after spore inoculation): 0.5 (2) | relative frequency of the fungicidal effect (T. rubrum; 50 μM, pH 3.5, illuminated, 17 h after spore inoculation): 1 (10) | relative frequency of the fungicidal effect (T. rubrum; 50 μM, pH 5.2, dark control, 17 h after spore inoculation): 1 (2) | relative frequency of the fungicidal effect (T. rubrum; 50 μM, pH 5.2, illuminated, 17 h after spore inoculation): 1 (3) | relative frequency of the fungicidal effect (T. rubrum; 50 μM, pH 7.4, dark control, 17 h after spore inoculation): 0.5 (6) | relative frequency of the fungicidal effect (T. rubrum; 50 μM, pH 7.4, illuminated, 17 h after spore inoculation): 0.9 (12) | relative frequency of the fungicidal effect (T. rubrum; 65 μM, pH 3.5, dark control, 17 h after spore inoculation): 1 (2) | relative frequency of the fungicidal effect (T. rubrum; 65 μM, pH 3.5, illuminated, 17 h after spore inoculation): 1 (4) | relative frequency of the fungicidal effect (T. rubrum; 65 μM, pH 7.4, dark control, 17 h after spore inoculation): 1 (6) | relative frequency of the fungicidal effect (T. rubrum; 65 μM, pH 7.4, illuminated, 17 h after spore inoculation): 1 (12) | relative frequency of the fungicidal effect (T. rubrum; 80 μM, pH 3.5, dark control, 17 h after spore inoculation): 0.5 (4) | relative frequency of the fungicidal effect (T. rubrum; 80 μM, pH 3.5, illuminated, 17 h after spore inoculation): 1 (8) | relative frequency of the fungicidal effect (T. rubrum; 80 μM, pH 5.2, dark control, 17 h after spore inoculation): 1 (2) | relative frequency of the fungicidal effect (T. rubrum; 80 μM, pH 5.2, illuminated, 17 h after spore inoculation): 1 (3) | relative frequency of the fungicidal effect (T. rubrum; 80 μM, pH 7.4, dark control, 17 h after spore inoculation): 1 (6) | relative frequency of the fungicidal effect (T. rubrum; 80 μM, pH 7.4, illuminated, 17 h after spore inoculation): 1 (12) | cfu in dark controls (T. rubrum; 17-hour stage after spore inoculation): 8 to 12 cfu | cfu in dark controls (T. rubrum; 48-hour and 72 hour stage, concentrations higher than 80 μM): 5 to 8 cfu | cfu in dark controls (T. rubrum; 48-hour and 72 hour stage, up to 80 μM Sylsens B): 8 to 12 cfu | MIC (Minimum Inhibitory Concentration) (T. rubrum; pH 5.2, PDT 17 h after spore inoculation): 5 to 6 µM | MIC (Minimum Inhibitory Concentration) (T. rubrum; pH 7.4, PDT 17 h after spore inoculation): ≧50 μM | binding of Sylsens B to the fungus [1]: eliminated binding | production of 1O2 [2]: substantially constant
